Here are results for six molecules from patent US20060270737A1, “Menthol propyleneglycol-carbonate and analogs thereof as insect pest repellents” (priority 2003, published 2006).

What all share (assay type): in vivo
Test [1] concerns milk termite, Coptotermes vastator. Nature of the test: Inhibition of termite infestation, weight loss of impregnated soft wood. The protocol: The milk termite, Coptotermes vastator, is a pest found in tropical and sub-tropical areas. To test the efficacy of racemic menthol propyleneglycol-carbonate, this chemical was dissolved in 95% ethanol at concentration of 10% w/w and pieces of pre-weighed soft wood were immersed in the solution for 24 hours. After impregnation, the wood was allowed to dry in air to remove the ethanol which has a lower flash point. The dry wood was reweighed to determine the total amount of racemic menthol propyleneglycol-carbonate absorbed into the wood. The weight of racemic menthol propyleneglycol-carbonate absorbed was 26 milligrams per gram of wood. Controls were prepared using wood impregnated with 95% ethanol alone.
The wood test samples were placed on top of a fallen jackfruit tree (Artocarpus heterophylla) heavily infested by termites under ambient, natural, outdoor conditions for a period of 2 months. At the end of the test period, the wood samples were cleaned of debris and termites, dried in the sun and weighed. The degree of wood preservation was determined by the amount of weight loss during the test period.

Another test concerns mosquito. Put plainly: Outdoor mosquito tests, protection time on exposed arms of human volunteers. To be noted: outdoors from 3:00 PM, 3 human volunteers per group, test chemical 10% w/w in ointment base, ± SEM. The protocol: To validate the efficacy of menthol propyleneglycol-carbonate under ambient conditions in nature, this chemical was mixed in an ointment base at 10% w/w and applied to the exposed arms of human volunteers who remained outdoors during the peak period of mosquito biting, beginning at 3:00 PM. The protection time was recorded and compared with that obtained from human volunteers using a commercially available insect repellent (OFF! Skintastic; 7% DEET) manufactured by SC Johnson & Sons, Inc. (Racine, Wis.). Control ointment consisted of Fougera ointment without any active ingredient. The protection time was determined for 3 human volunteers for each test group.

The test system of test [2] is stable fly or dog fly (Stomoxys calcitrans). Put plainly: Stable flies landing on sprayed meat bait. The protocol: To test the effectiveness of racemic menthol propylene glycol carbonate, a 50% solution was prepared in 95% ethanol and sprayed using a standard spray bottle. Stable flies were collected by placing a screened cage containing (Peaceful Valley Farm Supply, Grass Valley, Calif.) bait beside a horse stable one day prior to the test. Approximately 200 stable flies were collected from each cage. The test bait comprising pieces of beef was placed in an aluminum pan at the bottom of the collecting cage. The test was conducted using meat sprayed with 50% racemic menthol propyleneglycol-carbonate solution, with a control composed of meat sprayed with ethanol alone. The test was conducted in duplicate. The number of stable flies landing and feeding on the meat was counted periodically.

Test [3] has as its system Adult mosquitoes (Culex quinquefasciatus). Put plainly: Mosquito chamber test, protection time until first bite on lotion-coated arms of human volunteers. Conditions: for Protection Time: 5 wt % in lotion base, elbow to fingertips of human volunteers, time to first bite, mean ± SEM, 4 volunteers. The protocol: Adult mosquitoes (Culex quinquefasciatus) were kept inside a screened chamber measuring 2 ft×2 ft×2 ft at a density of 200 mosquitoes per chamber. The mosquitoes are aged 3 to 10 days after emergence from larvae and were starved for 24 hours prior to each test. Each of the test compounds (supplied as a gift from Symrise GmbH & Co Kg, Holzminden, Germany) was added to a commercial lotion base (Cresto Laboratories, […], Philippines) and thoroughly mixed into the lotion using an electronic mixer. The resulting formulation was applied from the elbow to the tip of the fingers of human volunteers. The coated arms of the volunteers were then inserted, in turn, inside the chamber up to the elbow. The protection time was determined for each formulation as the length of time until a mosquito had taken its first bite, after which the test was terminated. The data in Table 1 show the protection time determined in this manner for the compounds tested.

The test system of test [4] is red ant (pharaoh ant, Monomorium pharaonis). Put plainly: Ant repellent test, impregnated filter paper barrier around table leg. To be noted: mean ± SEM of 5 tests. The protocol:
The red ant (pharaoh ant, Monomorium pharaonis) was selected for this ant repellent test since it has a worldwide distribution and is known to be a household pest. Red ants are attracted to the smell of food. The attractant in this experiment was a piece of chocolate, which was placed on a tabletop 5 hours before the test. Within 2 hours after being released on the ground around the table, the red ants established a route from the ground up the table legs. At the 5th hour, a filter paper impregnated with racemic menthol propyleneglycol-carbonate at two concentrations was placed around the middle portion of the table leg. The test compound was dissolved in ethanol and impregnated into a pre-weighed, 2 inch by 7 inch piece of filter paper. After complete evaporation of ethanol, the filter paper was weighed and the final weight of the test compound was determined per cm^2 of the filter paper. The control employed was the same filter paper soaked with ethanol only. The time for the first ant to cross the filter paper barrier was determined.

Another test has as its system mosquito biting activity. Nature of the test: Mosquito chamber protection time of combinations with DEET and citronella product (Natrapel). To be noted: both at 10% w/w in hydrophilic ointment base, arms of 3 human volunteers. The protocol: To test the effectiveness of menthol propyleneglycol-carbonate(menthol propyleneglycol-carbonate) in enhancing the effect of the known insect repellent DEET against mosquito biting activity, this study was undertaken by combining racemic menthol propyleneglycol-carbonate with DEET (purchased from Sigma-Aldrich). The two chemicals were added at 10% w/w in an Hydrophilic ointment base (E. Fougera & Co., Melville, N.Y.) and applied on the exposed arms of human volunteers. The treated arms were inserted inside a mosquito chamber and the protection time was determined. […] The recorded data represents the mean and standard error of 3 human volunteers.
To test the effectiveness of menthol propyleneglycol-carbonate in enhancing the effect of another known mosquito repellent product, an experiment was undertaken in Which menthol propyleneglycol-carbonate was added at a concentration of 10% w/w to a citronella-based product (Natrapel) manufactured by Tender Corporation (Littleton, N.H.).

The test system of the next test is fire ants (s. invicta). Nature of the test: Fire ant bait protection test. Conditions: 50% (v/v) in ethanol sprayed on peanut butter bait, 4 replicates, terminated after 5 hours. The protocol: In this study, the repellent effect of racemic menthol propyleneglycol-carbonate was examined by preparing a solution of this chemical in ethanol at concentration of 50% (v/v). The solution was sprayed with a pump spray dispenser ([…] & Associates, Duarte, Calif.) to a bait composed of sugary food (in this case, peanut butter). The control was composed of ethanol alone. This study was conducted in Fort Pierce, Fla. The protection time was measured as the time when the first ant started consuming the bait. […] The experiment was terminated after 5 hours of observation. Each study group was composed of 4 replicates. In the control which was sprayed with ethanol alone, the fire ants (s. invicta) were seen on the bait within 3 minutes after the spray was applied.

The test system of the next test is mosquitoes. Put plainly: Standard mosquito chamber test of halloysite-entrapped and free active in aloe vera cream. Conditions: 20% w/w in aloe vera cream, forearm, 3 human volunteers; in min. The protocol: This study was conducted to evaluate the suitability of encapsulation or entrapment as a means of reducing the amount of racemic menthol propyleneglycol-carbonate required to produce a repellent effect and to provide a means of protecting the active material from degradation by other excipients in the formulation or from high temperatures associated with manufacturing, as in the case of impregnation of textile materials. The halloysite clay represents an example of many other suitable encapsulation materials available in the industry and is not intended as a limitation of the scope of this invention.
Halloysite clay is a naturally derived, nontoxic, biodegradable material typically used in the manufacture of porcelain, bone china and fine china. U.S. Pat. No. 5,651,976 to Price and Gaber describes a new method of controlled release using microtubules made from halloysite clay. […] The halloysite entrapped racemic menthol propyleneglycol-carbonate used in this study was supplied as a gift from Federal Technology Group (Bozeman, Mont.), with a total entrapped active material determined at 17% of the total weight. […] Protection time was measured as the time at which the human subject experienced the first mosquito bite. […]

With `CC(O)COC(=O)OC1CC(C)CCC1C(C)C` (racemic) [racemic menthol propyleneglycol-carbonate], in test [1] (impregnated wood, 2 months), the “termite consumption of the wood” value is “completely prevented from consuming the wood”. In test [1] (soft wood impregnated from 10% w/w ethanol solution (26 mg per gram of wood), 2 months outdoors on termite-infested tree), the “Percent of weight loss” value came out at 0.8 ± 0.4%. The “Protection Time” value in the test with mosquito is 227 ± 19 min; in test [3], 283 ± 17 min; in the test on fire ants (s. invicta), “at least 5 hours”; in the test on fire ants (s. invicta) (listed as Racemic menthol propyleneglycol-carbonate) it was over 5 h. In test [2] (from the initial single application of 50% spray), the “time by which the spray lost its efficacy” value was at most 9 h. In addition, the “time the spray remained very effective” value in test [2] (single application of 50% spray on meat) is “at least 5 hours”. In test [3] (from Table I protection times, 5 wt % in lotion), the “effectiveness in preventing mosquito bites relative to menthol or isopulegol” value was “almost nine times more effective”. Moreover, the “inhibitory effect on mosquito bite (FIG. 1)” value in test [3] (lotion containing various concentrations) was “dose dependent manner”. Besides, the “Time to cross barrier” value in test [4] (15 mg/cm^2 on filter paper) was 63 ± 18 min; in test [4] (30 mg/cm^2 on filter paper), 760 ± 76 min. Further, the “protection time / repellent effect of combination with DEET versus either compound alone (FIG. 3)” value in the test with mosquito biting activity is recorded as “greater protection time”. Further, the “PROTECTION TIME (Mean ± SEM)” value with mosquitoes worked out at 93 ± 6.
In the case of `C=C(C)C1CCC(C)CC1O` (single isomer, unassigned; (-)) [(−)-isopulegol, 5-methyl-2-(1-methylethenyl) cyclohexanol, reference compound], in test [3], the “Protection Time” value amounted to 56 ± 7 min.
On the same count and under the same terms, in the case of `CC1CCC(C(C)C)C(O)C1` (stereo not shown) [1-menthol, 1-5-methyl-2-isopropyl cyclohexanol, reference compound] it was 30 ± 9 min.
On the same count and under the same terms, then `CC1CCC(C(C)C)C(OCC(O)CO)C1` (stereo not shown) [menthoxy-propane-1,2-diol], with 68 ± 17 min.
Regarding `CC1CCC(C(C)C)C(OC(=O)OCCCCCCCCCO)C1` (stereo not shown) [menthyl-9-hydroxynonyl-carbonate], the “Protection Time” value in test [3] was found to be 79 ± 14 min.
With isopulegol propyleneglycol-carbonate, in test [3], the “Protection Time” value was 152 ± 36 min.
